Assay [1] has as its system A549 (human lung carcinoma) cells. The experiment in a line: Cell Viability Assay (CellTiter-Glo), A549. Format: cell-based. The procedure:
MIA PaCa-2 (human pancreatic carcinoma; ATCC CRL-1420) or A549 (human lung carcinoma; ATCC CCL-185) cells were cultured in RPMI 1640 medium containing 10% fetal bovine serum and 1× penicillin/streptomycin/L-glutamine. Cells were seeded in 384-well plates at a density of 1.67E+04 cells/mL and incubated at 37° C., 5% CO2, overnight. Serially-diluted compound or DMSO was added to the cells, and plates were incubated at 37° C., 5% CO2 for 72 h. Cell viability was measured using a CellTiter-Glo® Luminescent Cell Viability Assay kit (Promega) according to the manufacturer's protocol. The luminescence signal of treated samples was normalized to DMSO control, and data were analyzed using a 4-parameter logistic model to calculate IC50 values.
In general terms: ATP-based viability assays read luminescence as a measure of living cells.

The test system of assay [2] is MIA PaCa-2 (human pancreatic carcinoma) cells. The assay can be described thus: Cell Viability Assay (CellTiter-Glo), MIA PaCa-2. The assay is classed as cell-based. The procedure: Serially-diluted compound or DMSO was added to the cells, and plates were incubated at 37° C., 5% CO2 for 72 h. Cell viability was measured using a CellTiter-Glo® Luminescent Cell Viability Assay kit (Promega) according to the manufacturer's protocol. The luminescence signal of treated samples was normalized to DMSO control, and data were analyzed using a 4-parameter logistic model to calculate IC50 values.

Another assay has as its target KRAS G12C (Homo sapiens (Human), UniProt P01116, C118A/G12C). The assay can be described thus: 2 h coupled exchange assay. To be noted: Avg 2 h Coupled exchange IC50, 2 h compound pre-incubation, SOS-mediated nucleotide exchange. Format: biochemical. The procedure:
The term “2 h coupled exchange assay” or “20 h coupled exchange assay” as used herein refers to the assay described in the Section entitled “BIOLOGICAL EVALUATION.”

The IC50 is the point on the concentration scale where inhibition reaches its midpoint. Read a low IC50 as inhibition by little substance.

Sequence of KRAS G12C (P01116 other isoform, or with tags, fused parts or gaps G12C/C118A): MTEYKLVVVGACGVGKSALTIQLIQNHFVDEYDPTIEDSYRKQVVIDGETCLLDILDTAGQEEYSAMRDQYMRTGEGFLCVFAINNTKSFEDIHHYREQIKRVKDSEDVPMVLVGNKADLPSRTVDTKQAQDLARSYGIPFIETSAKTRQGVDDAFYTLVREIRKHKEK

`C=CC(=O)N1CC2(CCN(c3nc4c(c(-c5cc(O)ccc5C)c3Cl)COC(C)(C)C4)C2)C1` (single isomer, unassigned) [Example 2-81, (P)-1-(6-(3-chloro-4-(5-hydroxy-2-methylphenyl)-7,7-dimethyl-7,8-dihydro-5H-pyrano[4,3-b]pyridin-2-yl)-2,6-diazaspiro[3,4]octan-2-yl)-2-propen-1-one]: the IC50 in assay [1] (Homo sapiens, A549, 72 h) is above 5 µM; in assay [2] (Homo sapiens, MIA PaCa-2, 72 h), 0.058 µM; against KRAS G12C, 0.053 µM.

For `C=CC(=O)N1CC2(CCN(c3cc4c(c(-c5c(C)ccc6[nH]ncc56)c3C#N)COCC4)C2)C1` (single isomer, unassigned) [Example 2-100, (P)-8-(5-methyl-1H-indazol-4-yl)-6-(2-(2-propenoyl)-2,6-diazaspiro[3.4]octan-6-yl)-3,4-dihydro-1H-2-benzopyran-7-carbonitrile], the IC50 in assay [1] (Homo sapiens, A549, 72 h) is above 5 µM; in assay [2] (Homo sapiens, MIA PaCa-2, 72 h), 0.025 µM; at KRAS G12C, 0.033 µM.

Turning to `C=CC(=O)N1CC2(CCN(c3nc4c(c(-c5c(C)c(Cl)cc6[nH]ncc56)c3Cl)COC(C)(C)C4)C2)C1` (single isomer, unassigned) [Example 2-109, (P)-1-(6-(3-chloro-4-(6-chloro-5-methyl-1H-indazol-4-yl)-7,7-dimethyl-7,8-dihydro-5H-pyrano[4,3-b]pyridin-2-yl)-2,6-diazaspiro[3.4]octan-2-yl)-2-propen-1-one], the IC50 was above 5 µM in assay [1] (Homo sapiens, A549, 72 h); 0.003 µM in assay [2] (Homo sapiens, MIA PaCa-2, 72 h); 0.023 µM at KRAS G12C.

Regarding `C=CC(=O)N1CC2(CCN(c3nc(-c4ccccc4F)c4c(n3)N([C@H](CC(=O)NC)CC(C)C)CC4)C2)C1` (single isomer, unassigned) [Example 9], the IC50 in assay [1] (Homo sapiens, A549, 72 h) is above 5 µM; in assay [2] (Homo sapiens, MIA PaCa-2, 72 h), 1.69 µM; at KRAS G12C, 0.691 µM.

For the compound `C=CC(=O)N1CC2(CCN(c3nc(-c4ccccc4F)c4c(n3)N([C@H](CC(=O)NC)CC(C)C)CCC4)C2)C1` (single isomer, unassigned) [Example 10], the IC50 in assay [1] (Homo sapiens, A549, 72 h) was above 5 µM; in assay [2] (Homo sapiens, MIA PaCa-2, 72 h), 3.24 µM; on KRAS G12C, 1.68 µM.

For `C=CC(=O)N1CC2(CCN(c3nc(-c4ccccc4F)c4ccn([C@H](CC(=O)NC)CC(C)C)c4n3)C2)C1` (single isomer, unassigned) [Example 11], the IC50 came out at 12.6 µM in assay [1] (Homo sapiens, A549, 72 h); 1.16 µM in assay [2] (Homo sapiens, MIA PaCa-2, 72 h); 1.94 µM on KRAS G12C.

Consider `C=CC(=O)N1CC2(CCN(c3nc4c(c(-c5cc(O)cc6nccnc56)c3C#N)C[C@H]3C[C@@H]4C3(C)C)C2)C1` (single isomer, unassigned) [Example 12-38], for which the half-inhibitory concentration (IC50) in assay [1] (Homo sapiens, A549, 72 h) is above 5 µM; in assay [2] (Homo sapiens, MIA PaCa-2, 72 h), above 5 µM; on KRAS G12C it was 0.137 µM.

In the case of `C=CC(=O)N1CC2(CCN(c3nc4c(c(-c5cc(O)cc(Cl)c5C)c3C)COC(C)(C)C4)C2)C1` (single isomer, unassigned) [Example 12-43, (M)-1-(6-(4-(3-chloro-5-hydroxy-2-methylphenyl)-3,7,7-trimethyl-7,8-dihydro-5H-pyrano[4,3-b]pyridin-2-yl)-2,6-diazaspiro[3.4]octan-2-yl)prop-2-en-1-one], the IC50 in assay [1] (Homo sapiens, A549, 72 h) was above 5 µM; in assay [2] (Homo sapiens, MIA PaCa-2, 72 h) it was 0.082 µM; against KRAS G12C it was 0.026 µM.

With `C=CC(=O)N1CC2(CCN(c3nc4c(c(-c5c(C)ccc6cnn(C)c56)c3C#N)CC(C)(C)C4)C2)C1` (single isomer, unassigned) [Example 13-18, (P)-4-(1,6-dimethyl-1H-indazol-7-yl)-6,6-dimethyl-2-(2-(2-propenoyl)-2,6-diazaspiro[3.4]octan-6-yl)-6,7-dihydro-5H-cyclopenta[b]pyridine-3-carbonitrile], the IC50 in assay [1] (Homo sapiens, A549, 72 h) is above 5 µM; in assay [2] (Homo sapiens, MIA PaCa-2, 72 h), 0.18 µM; against KRAS G12C it was 0.026 µM.

Turning to `C=CC(=O)N1CC2(CCN(c3nc4c(c(-c5cc(O)cc6ccccc56)c3C#N)COC(C)(C)C4)C2)C1` (single isomer, unassigned) [Example 13-43, (P)-4-(3-hydroxy-1-naphthalenyl)-7,7-dimethyl-2-(2-(2-propenoyl)-2,6-diazaspiro[3.4]octan-6-yl)-7,8-dihydro-5H-pyrano[4,3-b]pyridine-3-carbonitrile], the IC50 in assay [1] (Homo sapiens, A549, 72 h) was above 5 µM; in assay [2] (Homo sapiens, MIA PaCa-2, 72 h), 0.143 µM; against KRAS G12C, 0.016 µM.

`C=CC(=O)N1CC2(CCN(c3nc4c(c(-c5c(C)ccc6cnn(C)c56)c3C#N)COC(C)(C)C4)C2)C1` (single isomer, unassigned) [Example 13-60, (P)-4-(1,6-dimethyl-1H-indazol-7-yl)-7,7-dimethyl-2-(2-(2-propenoyl)-2,6-diazaspiro[3.4]octan-6-yl)-7,8-dihydro-5H-pyrano[4,3-b]pyridine-3-carbonitrile]: the half-maximal inhibitory concentration (IC50) in assay [1] (Homo sapiens, A549, 72 h) is above 5 µM; in assay [2] (Homo sapiens, MIA PaCa-2, 72 h) it was 0.146 µM; at KRAS G12C, 0.063 µM.

As for `C=CC(=O)N1CC2(CCN(c3nc4c(c(-c5cc(O)cc6ccccc56)c3C#N)CC(C)(C)C4)C2)C1` (single isomer, unassigned) [Example 13-69, (P)-4-(3-hydroxy-1-naphthalenyl)-6,6-dimethyl-2-(2-(2-propenoyl)-2,6-diazaspiro[3.4]octan-6-yl)-6,7-dihydro-5H-cyclopenta[b]pyridine-3-carbonitrile], the IC50 in assay [1] (Homo sapiens, A549, 72 h) was 3.23 µM; in assay [2] (Homo sapiens, MIA PaCa-2, 72 h), 0.217 µM; against KRAS G12C it was 0.027 µM.

As to `C=CC(=O)N1CC2(CCN(c3nc4c(c(-c5cc(O)c(F)c6ccccc56)c3C#N)CC[C@@H]3C[C@H]43)C2)C1` (single isomer, unassigned) [Example 13-74], the IC50 is above 5 µM in assay [1] (Homo sapiens, A549, 72 h); above 5 µM in assay [2] (72 h); 0.076 µM at KRAS G12C.

On to `C=CC(=O)N1CC2(CCN(c3nc4c(c(-c5cc(O)c(F)c6ccccc56)c3C#N)CC[C@@H]3C[C@H]43)C2)C1` (single isomer, unassigned) [Example 13-76], for which the IC50 in assay [1] (72 h) was found to be 3.26 µM; in assay [2] (72 h), 1.19 µM; against KRAS G12C, 0.04 µM.

With `C=CC(=O)N1CC2(CCN(c3nc4c(c(-c5cc(O)c(F)c6ccccc56)c3C#N)COC(C)(C)C4)C2)C1` (single isomer, unassigned) [Example 13-78, (P)-4-(4-fluoro-3-hydroxy-1-naphthalenyl)-7,7-dimethyl-2-(2-(2-propenoyl)-2,6-diazaspiro[3.4]octan-6-yl)-7,8-dihydro-5H-pyrano[4,3-b]pyridine-3-carbonitrile], the IC50 in assay [1] (Homo sapiens, A549, 72 h) is above 5 µM; in assay [2] (Homo sapiens, MIA PaCa-2, 72 h), 0.842 µM; against KRAS G12C it was 0.076 µM.

Regarding `C=CC(=O)N1CC2(CCN(c3nc4c(c(-c5c(C)c(C)cc6cnn(C)c56)c3C#N)COC(C)(C)C4)C2)C1` (single isomer, unassigned) [Example 13-92, (P)-7,7-dimethyl-2-(2-(2-propenoyl)-2,6-diazaspiro[3.4]octan-6-yl)-4-(1,5,6-trimethyl-1H-indazol-7-yl)-7,8-dihydro-5H-pyrano[4,3-b]pyridine-3-carbonitrile], the IC50 in assay [1] (Homo sapiens, A549, 72 h) is above 5 µM; in assay [2] (Homo sapiens, MIA PaCa-2, 72 h), 0.009 µM; at KRAS G12C, 0.013 µM.

Turning to `C=CC(=O)N1CC2(CCN(c3nc4c(c(-c5c(C)ccc6cnn(C)c56)c3C#N)C[C@H]3C[C@@H]4C3(C)C)C2)C1` (single isomer, unassigned) [Example 13-106], the IC50 was above 5 µM in assay [1] (Homo sapiens, A549, 72 h); 0.831 µM in assay [2] (Homo sapiens, MIA PaCa-2, 72 h); 0.078 µM on KRAS G12C.

(Values after patent US20240059703A1 (AMGEN INC., priority 2021, published 2024).)
